Test [1] relates to Aspergillus niger. Description: Antimicrobial activity against Aspergillus niger at 100 ug/ml after 72 to 96 hr by serial dilution method. The class given is functional, organism-based.
In test [2] the test system is Escherichia coli. Kind of test: Antimicrobial activity against Escherichia coli after 24 hr by serial dilution method. The class given is functional.
Test [3] relates to Candida. Description: Antimicrobial activity against Candida 6 after 72 to 96 hr by serial dilution method. The class given is functional.
The test system of test [4] is Aspergillus niger. Description: Antimicrobial activity against Aspergillus niger at 200 ug/ml after 72 to 96 hr by serial dilution method. In kind it is functional, organism-based.
Test [5] deals with Enterococcus faecalis. Description: Antimicrobial activity against Enterococcus faecalis after 24 hr by serial dilution method. In kind it is functional.
Test [6] deals with Bacillus subtilis. Description: Antimicrobial activity against Bacillus subtilis after 24 hr by serial dilution method. The class given is functional.
For test [7], the system named is Cryptococcus neoformans. Kind of test: Antimicrobial activity against Cryptococcus neoformans at 200 ug/ml after 72 to 96 hr by serial dilution method. The class given is functional, organism-based.
Test [8] has as its system Klebsiella pneumoniae. Description: Antimicrobial activity against Klebsiella pneumoniae at 100 ug/ml after 24 hr by serial dilution method. The class given is functional, organism-based.
The subject of test [9] is Pseudomonas aeruginosa. Description: Antimicrobial activity against Pseudomonas aeruginosa at 100 ug/ml after 24 hr by serial dilution method. The class given is functional, organism-based.
The subject of test [10] is Candida. Description: Antimicrobial activity against Candida-51 after 72 to 96 hr by serial dilution method. The class given is functional.
Test [11] concerns Cryptococcus neoformans. Kind of test: Antimicrobial activity against Cryptococcus neoformans at 100 ug/ml after 72 to 96 hr by serial dilution method. In kind it is functional, organism-based.
For test [12], the system named is Aspergillus flavus. Description: Antimicrobial activity against Aspergillus flavus after 72 to 96 hr by serial dilution method. In kind it is functional.
The subject of test [13] is Klebsiella pneumoniae. Description: Antimicrobial activity against Klebsiella pneumoniae after 24 hr by serial dilution method. In kind it is functional.
The subject of test [14] is Cryptococcus neoformans. Kind of test: Antimicrobial activity against Cryptococcus neoformans after 72 to 96 hr by serial dilution method. In kind it is functional.
In test [15] the test system is Pseudomonas aeruginosa. Description: Antimicrobial activity against Pseudomonas aeruginosa after 24 hr by serial dilution method. The class given is functional.
The test system of test [16] is Aspergillus niger. Kind of test: Antimicrobial activity against Aspergillus niger after 72 to 96 hr by serial dilution method. The class given is functional.
Test [17] deals with Enterococcus faecalis. Description: Antimicrobial activity against Enterococcus faecalis at 100 ug/ml after 24 hr by serial dilution method. The class given is functional, organism-based.
Test [18] deals with Aspergillus flavus. Description: Antimicrobial activity against Aspergillus flavus at 100 ug/ml after 72 to 96 hr by serial dilution method. The class given is functional, organism-based.
For test [19], the system named is Aspergillus flavus. Description: Antimicrobial activity against Aspergillus flavus at 200 ug/ml after 72 to 96 hr by serial dilution method. The class given is functional, organism-based.

Converted amounts (≈) assume the structure as drawn. The source made the active and inactive calls. The calls are words filed in the database; no cut-off is given here.

As a reminder, the MIC is the least concentration at which growth counts as inhibited. Low values mean greater potency, high ones weaker potency. In the case of `CCC1C(=O)CC(c2ccco2)NC1c1ccco1` (stereo unspecified), the inhibition entry in test [1], in [4], in [7], in [8], in [9] and in test [11] was “inactive” in each case. Also, the MIC in test [2] stood at 25 mg/L (≈ 96.4 µM); in test [3], 50 mg/L (≈ 193 µM); in [5] it was 100 mg/L (≈ 386 µM); in test [6], 25 mg/L (≈ 96.4 µM); in test [10], 100 mg/L (≈ 386 µM); in test [12] it was 100 mg/L (≈ 386 µM).

On to `CCC1/C(=N\O)CC(c2ccco2)NC1c1ccco1` (stereo unspecified), for which the minimum inhibitory concentration (MIC) is 25 mg/L (≈ 91.1 µM) in [2]; 25 mg/L (≈ 91.1 µM) in [3]; 6.25 mg/L (≈ 22.8 µM) in [13]; 25 mg/L (≈ 91.1 µM) in [5]; 25 mg/L (≈ 91.1 µM) in [6]; 12.5 mg/L (≈ 45.6 µM) in test [14]. Further, the MIC came to 12.5 mg/L (≈ 45.6 µM) in test [15], 12.5 mg/L (≈ 45.6 µM) in test [10], 50 mg/L (≈ 182 µM) in [16] and 25 mg/L (≈ 91.1 µM) in test [12].

On to `CC1C(=O)C(C)C(c2ccco2)NC1c1ccco1` (stereo unspecified), for which the MIC in [2] amounted to 12.5 mg/L (≈ 48.2 µM); in test [3] it was 50 mg/L (≈ 193 µM); in [13], 100 mg/L (≈ 386 µM); in test [5], 50 mg/L (≈ 193 µM); in test [6], 12.5 mg/L (≈ 48.2 µM); in [10], 50 mg/L (≈ 193 µM). Besides, the MIC in test [16] came out at 100 mg/L (≈ 386 µM); in [12], 50 mg/L (≈ 193 µM). Moreover, the inhibition result in test [7], in [9] and in test [11] was “inactive” in each case.

With `CC1/C(=N\O)CC(c2ccco2)NC1c1ccco1` (stereo unspecified), the MIC in test [2] is 12.5 mg/L (≈ 48 µM); in test [3], 50 mg/L (≈ 192 µM); in test [13], 12.5 mg/L (≈ 48 µM); in test [5], 25 mg/L (≈ 96 µM); in test [6], 25 mg/L (≈ 96 µM); in [14], 25 mg/L (≈ 96 µM). The MIC is 25 mg/L (≈ 96 µM) in test [15], 12.5 mg/L (≈ 48 µM) in test [10], 100 mg/L (≈ 384 µM) in test [16] and 50 mg/L (≈ 192 µM) in test [12].

In the case of `CC1C(=NO)C(C)C(c2ccco2)NC1c1ccco1` (stereo unspecified), the MIC in test [2] stood at 25 mg/L (≈ 91.1 µM); in [3] it was 12.5 mg/L (≈ 45.6 µM); in test [13] it was 6.25 mg/L (≈ 22.8 µM); in test [5] it was 25 mg/L (≈ 91.1 µM); in [6] it was 25 mg/L (≈ 91.1 µM); in test [14], 6.25 mg/L (≈ 22.8 µM). In addition, the MIC in test [15] turned out to be 50 mg/L (≈ 182 µM); in test [10] it was 12.5 mg/L (≈ 45.6 µM); in [16], 25 mg/L (≈ 91.1 µM); in test [12] it was 12.5 mg/L (≈ 45.6 µM).

`C[C@@H]1[C@H](O)[C@@H](C)/C=C/C=C/C=C/C=C/C=C/C=C/C=C/[C@H](O[C@@H]2O[C@H](C)[C@@H](O)[C@H](N)[C@@H]2O)C[C@@H]2O[C@](O)(C[C@@H](O)C[C@@H](O)[C@H](O)CC[C@@H](O)C[C@@H](O)CC(=O)O[C@H]1C)C[C@H](O)[C@H]2C(=O)O` [AMPHOTERICIN B]: the MIC in [3] was 25 mg/L (≈ 27.1 µM); in test [14] it was 25 mg/L (≈ 27.1 µM); in test [10], 25 mg/L (≈ 27.1 µM); in test [16], 50 mg/L (≈ 54.1 µM); in test [12] it was 50 mg/L (≈ 54.1 µM).

As to `CC1C(=O)CC(c2ccco2)NC1c1ccco1` (stereo unspecified), the inhibition entry in test [1], in [4], in test [17], in test [7], in [8] and in [9] was “inactive” each time. The inhibition entry in test [11], in test [18] and in [19] was “inactive” throughout. Besides, the MIC was 50 mg/L (≈ 204 µM) in [2], 100 mg/L (≈ 408 µM) in [3], 50 mg/L (≈ 204 µM) in test [6] and 100 mg/L (≈ 408 µM) in test [10].

On to `CN[C@@H]1[C@H](O[C@H]2[C@H](O[C@H]3[C@H](O)[C@@H](O)[C@H](N=C(N)N)[C@@H](O)[C@@H]3N=C(N)N)O[C@@H](C)[C@]2(O)C=O)O[C@@H](CO)[C@H](O)[C@H]1O` [STREPTOMYCIN], for which the MIC in test [2] was found to be 12.5 mg/L (≈ 21.5 µM); in [13], 25 mg/L (≈ 43 µM); in test [5] it was 50 mg/L (≈ 86 µM); in test [6], 12.5 mg/L (≈ 21.5 µM); in test [15] it was 25 mg/L (≈ 43 µM).

Values taken from ChEMBL document CHEMBL3045318, “Synthesis and Antimicrobial Evaluation of Some t(3)-Alkyl and t(3),t(5)-Dimethyl-r(2),c(6)-DI-2-Furfurylpiperidin-4-one and its Derivatives” (2005).
